These results are taken from publication PMC10762035, “Molecular basis of human trace amine-associated receptor 1 activation” (Nature Communications, 2024).

In experiment [1] the target is T1, hTA1 (Homo sapiens, UniProt Q96RJ0).
T1 construct: expressed in transfected cells; host or cells: HEK293T
T1 sequence (Q96RJ0 1-339): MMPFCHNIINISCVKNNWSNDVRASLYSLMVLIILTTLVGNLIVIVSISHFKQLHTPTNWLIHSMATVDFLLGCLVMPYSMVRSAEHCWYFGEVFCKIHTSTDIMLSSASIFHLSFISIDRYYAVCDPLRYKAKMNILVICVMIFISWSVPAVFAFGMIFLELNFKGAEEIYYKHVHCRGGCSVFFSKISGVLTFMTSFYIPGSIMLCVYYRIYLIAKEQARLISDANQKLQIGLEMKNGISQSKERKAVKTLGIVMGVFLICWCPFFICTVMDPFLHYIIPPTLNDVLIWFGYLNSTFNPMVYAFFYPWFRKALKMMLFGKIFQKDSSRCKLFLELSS
To be noted: cited from earlier work.

Experiment [2] concerns the target mTA1. To be noted: read-out: affinity; cited from earlier work.
Experiment [3] relates to mTA1. Particulars: cited from earlier work.
The target of experiment [4] is T1, hTA1. To be noted: antagonist; cited from earlier work.
The next experiment relates to rTA1. Particulars: cited from earlier work.
The next experiment concerns DRD4 S^5.43A. To be noted: S^5.43A mutation in DRD4; cited from earlier work.
For experiment [5], the target named is T1, hTA1. Put plainly: Screen of 89 aminergic compounds at 10 µM, cAMP accumulation in HEK293T cells.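 Further: HEK293T cells co-transfected with hTA1 and GloSensor cAMP reporter, cAMP accumulation detected by luminescence.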 In kind it is cell-based. To be noted: 10 µM of compound; HEK293T; threshold log2-fold change of 2. On the technique in general: Changes in cAMP serve as a functional read-out for many G protein-coupled receptors.
The target of experiment [6] is T1, hTA1. In words: GloSensor cAMP accumulation assay, concentration response, wild-type hTA1 in transfected HEK293T cells.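 Further: luminescence read after 30 min compound exposure at room temperature in cells preloaded with D-Luciferin, reflecting Gs-driven cAMP rise, efficacy scaled to the maximal β-PEA response.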 In kind it is cell-based. Particulars: log[Compound], replicate wells.

Structures are written as SMILES. Values joined by “and” are separate entries in the source; they are usually repeats but may differ in a detail not shown here. Equal values may be shown once.

By IC50 is commonly meant the concentration at which inhibition is half-maximal.

For `CCOc1cccc(NC(=O)c2ccc(N3CCCC3)c(C(F)(F)F)c2)c1` [EPPTB], the “binding to hTA1” value on hTA1 [1] was “does not appear to bind hTA1”. For the same molecule, the Ki at mTA1 [2] is ~1 nM.

Regarding `N#Cc1c(C(F)(F)F)cc(-c2ccc(Cl)cc2)nc1SCC(=O)Nc1ncccn1` [RTI-7470-44], the results for the “reduced potency relative to hTA1” value in the experiment with mTA1 [3] and in the experiment with rTA1 (rTA1) were ~ 140 fold and ~ 90 fold, respectively. For the same molecule, the IC50 at hTA1 [4] was ~8 nM.

Turning to `NCCc1ccc(O)c(O)c1` [dopamine], the “lowered potency by mutation” value in the experiment on DRD4 S^5.43A was 7 fold.

On to `Cc1cc(C(C)(C)C)c(O)c(C)c1CC1=NCCN1` [oxymetazoline], for which the “increase of signal over DMSO-treated controls (hTA1 activation)” value (“increase of signal” below) at hTA1 [5] is listed as ≥ 4 fold. Further, the “Normalized Luminescence Counts for WT hTA1” value on hTA1 [6] (M = -5) was 35.3607 and 39.1587 and 34.0837 and 3.969 and 2.152 and 2.824; at hTA1 [6] (M = -5.522), 27.6664 and 21.0198 and 25.8983 and 1.56 and 0.6511 and 0.8091; at hTA1 [6] (M = -6) it was 14.0131 and 12.0159 and 14.9299 and -0.5736 and -1.127 and -1.4822; on hTA1 [6] (M = -6.522), 3.994 and 5.664 and 5.697 and -1.838 and -1.68 and -1.798; at hTA1 [6] (M = -7), 1.539 and 1.637 and 2.128 and -1.4822 and -2.075 and -1.719; on hTA1 [6] (M = -7.522), -0.1968 and -0.426 and -0.09854 and -2.035 and -2.2723 and -2.391. In addition, the “Normalized Luminescence Counts for WT hTA1” value on hTA1 [6] (M = -8) is 0.03243 and -0.0003118 and 0.1634 and -1.166 and -0.9291 and -1.403; on hTA1 [6] (M = -8.522), -0.7206 and -0.5569 and -0.1313 and -1.364 and -1.522 and -1.956; at hTA1 [6] (M = -9) it was -0.7534 and -0.7861 and -0.0003118 and -1.403 and -1.798 and -2.035; at hTA1 [6] (M = -9.522), -0.7206 and -0.4914 and -0.5569 and -1.4822 and -1.64 and -1.838; at hTA1 [6] (M = -10) it was -1.31 and -1.0153 and -0.5242 and -2.075 and -1.4427 and -2.3118; at hTA1 [6] (M = -10.522), -0.1313 and -0.7206 and -0.7861 and -2.075 and -1.4822 and -2.43. Also, the “Normalized Luminescence Counts for WT hTA1” value is -0.03305 and -0.6224 and 0.03243 and -1.522 and -0.4551 and -2.114 at hTA1 [6] (M = -11); -0.4914 and -0.4587 and -0.5242 and -1.403 and -1.048 and -2.075 on hTA1 [6] (M = -11.522); -0.5897 and -0.6224 and -0.3932 and -2.035 and -1.4427 and -1.956 at hTA1 [6] (M = -12); 0.09791 and 0.06517 and -0.7861 and -1.64 and -1.127 and -0.8106 at hTA1 [6] (M = -12.522).

In the case of `CCCN1C[C@H](CSC)C[C@@H]2c3cccc4[nH]cc(c34)C[C@H]21` [pergolide], on hTA1 [5], the “increase of signal” value is reported as ≥ 4 fold. Further, the “Normalized Luminescence Counts for WT hTA1” value is 13.9149 and 11.9176 and 12.507 on hTA1 [6] (M = -5); 9.888 and 9.789 and 7.596 at hTA1 [6] (M = -5.522); 6.6135 and 5.238 and 5.4348 on hTA1 [6] (M = -6); 5.599 and 3.8632 and 6.122 at hTA1 [6] (M = -6.522); 3.11 and 1.735 and 0.9819 at hTA1 [6] (M = -7); 1.047 and 0.5563 and 0.1634 on hTA1 [6] (M = -7.522). For the same molecule, the “Normalized Luminescence Counts for WT hTA1” value on hTA1 [6] (M = -8) is 0.7855 and 0.1634 and 0.8182; at hTA1 [6] (M = -8.522), -0.0658 and 0.09791 and -0.0003118; at hTA1 [6] (M = -9), -0.426 and -0.3932 and -0.5242; on hTA1 [6] (M = -9.522) it was -0.8516 and -0.0003118 and -0.6224; on hTA1 [6] (M = -10) it was -0.3277 and 0.03243 and -0.5897; at hTA1 [6] (M = -10.522), -0.7206 and -0.2622 and 0.3598. Also, the “Normalized Luminescence Counts for WT hTA1” value on hTA1 [6] (M = -11) was 0.3926 and 0.1634 and 0.4253; at hTA1 [6] (M = -11.522), 0.4253 and 1.047 and -0.2622; at hTA1 [6] (M = -12), 0.3271 and -0.09854 and 0.6218; on hTA1 [6] (M = -12.522), 0.5236 and 0.9492 and 0.2616.

Consider `c1ccc2nc(N3CCNCC3)ccc2c1` [quipazine], for which the “increase of signal” value at hTA1 [5] was ≥ 4 fold. For the same molecule, the “Normalized Luminescence Counts for WT hTA1” value was 4.714 and 4.976 and 5.959 on hTA1 [6] (M = -5); 3.012 and 2.619 and 2.979 on hTA1 [6] (M = -5.522); 0.6873 and 0.2616 and 0.2944 at hTA1 [6] (M = -6); 0.06517 and 0.4908 and -0.09854 at hTA1 [6] (M = -6.522); 0.03243 and 0.2289 and -0.5569 at hTA1 [6] (M = -7); -0.0003118 and -0.1313 and -0.0658 at hTA1 [6] (M = -7.522). For the same molecule, the “Normalized Luminescence Counts for WT hTA1” value is 0.2944 and -0.3605 and 0.3598 on hTA1 [6] (M = -8); -0.1968 and 0.4581 and 0.1307 at hTA1 [6] (M = -8.522); -0.2295 and -0.4587 and -0.5242 at hTA1 [6] (M = -9); -0.3277 and -0.3605 and -0.6224 on hTA1 [6] (M = -9.522); -0.164 and -0.2622 and 0.3926 on hTA1 [6] (M = -10); 0.3271 and -1.0153 and 0.3926 at hTA1 [6] (M = -10.522). Further, the “Normalized Luminescence Counts for WT hTA1” value on hTA1 [6] (M = -11) is 0.3598 and 0.06517 and 0.6218; at hTA1 [6] (M = -11.522) it was 0.4581 and -0.3277 and -0.1968; on hTA1 [6] (M = -12), -0.164 and 0.06517 and -0.09854; at hTA1 [6] (M = -12.522) it was 0.589 and 1.473 and 0.2944.

`NCCc1c[nH]c2ccccc12` [tryptamine]: the “higher potency at rTA1 compared to hTA1” value in the experiment on rTA1 (rTA1 vs hTA1) is reported as “over 50 fold”.
